Common to all, as to assay type: cell-based
The target of assay [1] is T1, human prostanoid FP receptor (Homo sapiens, UniProt P43088).
T1 construct: expressed in transfected cells
As to the kind of experiment: FLIPR Ca2+ signaling antagonist assay, FP receptor stable cell line. To be noted: HEK-293 EBNA stable cells, vs standard agonist 17-phenyl-PGF2α. How it is done:
(§1) The above compounds were tested for PG antagonist activity as follows using human recombinant prostanoid receptor (DP1, EP1-4, FP, IP and TP) stable cell lines:
(§2) In order to measure the response of Gs and Gi coupled prostanoid receptors as a Ca^2+ signal, chimeric G protein cDNAs were used. Stable cell lines over-expressing human prostanoid DP1, EP1-4, FP, IP, and TP receptors were established as follows:
(§3) Briefly, human prostanoid DP1, EP2, and EP4 receptor cDNAs were co-transfected with chimeric Gqs cDNA containing a haemagglutanin (HA) epitope; human prostanoid EP3 receptors were co-transfected with chimeric Gqi-HA; human EP1, FP, IP, and TP receptor cDNAs were expressed with no exogenous G-proteins. Gqs and Gqi chimeric cDNAs (Molecular Devices, Sunnyvale, Calif., U.S.A.), as well as cDNAs of prostanoid receptors, were cloned into a pCEP4 vector with a hygromycin B selection marker. Transfection into HEK-293 EBNA (Epstein-Barr virus nuclear antigen) cells was achieved by the FuGENE 6 transfection Reagent (Roche Applied Science, Indianapolis, Ind., USA). Stable transfectants were selected according to hygromycin resistance. Because Gqs and Gqi contained an HA epitope, G-protein expression was detected by Western blotting analysis using anti-mouse HA monoclonal antibody and horseradish peroxidase (HRP)-conjugated secondary antibody, while functional expression of prostanoid receptors was detected by FLIPR screening. These stable cell lines were validated using previously published antagonists at 10 μM against serial dilutions of standard agonists by FLIPR functional assays for Ca^2+ Signaling (as described below).
(§4) Ca^2+ signaling studies were performed using a FLIPR TETRA system (Molecular Devices, Sunnyvale, Calif., USA) in the 384-format. This is a high-throughput instrument for cell-based assays to monitor Ca^2+ signaling associated with GPCRs and ion channels. Cells were seeded at a density of 5×10^4 cells/well in BioCoat poly-D-lysine coated, black wall, clear bottom 384-well plates (BD Biosciences, Franklin lakes, NJ, USA) and allowed to attach overnight in an incubator at 37° C. […]
(§5) After 4.5 minutes, a 7-point serial dilution of the standard agonist for the corresponding receptor, in a 25 μl volume was injected at the final concentrations from 10^−11M to 10^−5M 10-fold serial dilution increments for cells expressing human recombinant DP1, EP1, EP2, EP3, EP4, FP, and IP receptors. […] Cells were excited with LED (light emitting diode) excitation at 470-495 nm and emission was measured through an emission filter at 515-575 nm. Assay plates were read for 3.5 minutes using the FLIPR^TETRA. The peak increase in fluorescence intensity was recorded for each well. […]

The target of assay [2] is T2, human prostanoid DP1 receptor (Homo sapiens, UniProt Q13258).
T2 construct: expressed in transfected cells
T2 sequence (Q13258 1-359): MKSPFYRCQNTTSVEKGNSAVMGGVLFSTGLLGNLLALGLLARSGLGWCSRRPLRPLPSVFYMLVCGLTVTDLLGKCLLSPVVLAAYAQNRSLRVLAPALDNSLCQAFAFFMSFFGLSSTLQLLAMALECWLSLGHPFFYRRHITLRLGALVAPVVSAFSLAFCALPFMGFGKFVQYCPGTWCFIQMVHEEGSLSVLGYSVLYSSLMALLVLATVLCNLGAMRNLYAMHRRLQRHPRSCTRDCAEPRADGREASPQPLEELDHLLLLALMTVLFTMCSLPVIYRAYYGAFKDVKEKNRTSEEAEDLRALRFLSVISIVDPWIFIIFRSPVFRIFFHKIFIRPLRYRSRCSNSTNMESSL
As to the kind of experiment: FLIPR Ca2+ signaling antagonist assay, DP1 receptor stable cell line. As for the experimental part:
as §1, §2
Briefly, human prostanoid DP1, EP2, and EP4 receptor cDNAs were co-transfected with chimeric Gqs cDNA containing a haemagglutanin (HA) epitope; human prostanoid EP3 receptors were co-transfected with chimeric Gqi-HA; human EP1, FP, IP, and TP receptor cDNAs were expressed with no exogenous G-proteins. […] Because Gqs and Gqi contained an HA epitope, G-protein expression was detected by Western blotting analysis using anti-mouse HA monoclonal antibody and horseradish peroxidase (HRP)-conjugated secondary antibody, while functional expression of prostanoid receptors was detected by FLIPR screening. […]
After 4.5 minutes, a 7-point serial dilution of the standard agonist for the corresponding receptor, in a 25 μl volume was injected at the final concentrations from 10^−11M to 10^−5M 10-fold serial dilution increments for cells expressing human recombinant DP1, EP1, EP2, EP3, EP4, FP, and IP receptors. […] Assay plates were read for 3.5 minutes using the FLIPR^TETRA. […]

Assay [3] concerns the target T3, human prostanoid EP1 receptor (Homo sapiens, UniProt P34995).
T3 construct: expressed in transfected cells
T3 sequence (P34995 1-402): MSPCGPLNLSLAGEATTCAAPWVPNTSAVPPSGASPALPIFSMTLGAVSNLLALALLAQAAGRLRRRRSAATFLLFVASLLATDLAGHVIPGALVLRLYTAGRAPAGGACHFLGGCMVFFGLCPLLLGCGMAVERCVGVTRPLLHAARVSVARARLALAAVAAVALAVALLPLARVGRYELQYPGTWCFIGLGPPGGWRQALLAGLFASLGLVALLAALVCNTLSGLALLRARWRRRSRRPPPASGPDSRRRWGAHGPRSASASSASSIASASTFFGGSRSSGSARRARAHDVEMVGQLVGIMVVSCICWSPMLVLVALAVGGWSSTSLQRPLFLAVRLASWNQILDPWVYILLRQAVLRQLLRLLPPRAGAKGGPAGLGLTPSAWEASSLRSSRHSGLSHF
Nature of the assay: FLIPR Ca2+ signaling antagonist assay, EP1 receptor stable cell line. The following applies: vs standard agonist PGE2. How it is done: as §1, §2, §3, §4, §5

Assay [4] has as its target T4, human prostanoid EP2 receptor (Homo sapiens, UniProt P43116).
T4 construct: expressed in transfected cells
Nature of the assay: FLIPR Ca2+ signaling antagonist assay, EP2 receptor stable cell line. The following applies: chimeric Gqs, vs standard agonist PGE2. How it is done: as §1, §2, §3, §4, §5

The target in assay [5] is T5, human prostanoid EP3 receptor (Homo sapiens, UniProt P43115).
T5 construct: expressed in transfected cells
T5 sequence (P43115 1-390): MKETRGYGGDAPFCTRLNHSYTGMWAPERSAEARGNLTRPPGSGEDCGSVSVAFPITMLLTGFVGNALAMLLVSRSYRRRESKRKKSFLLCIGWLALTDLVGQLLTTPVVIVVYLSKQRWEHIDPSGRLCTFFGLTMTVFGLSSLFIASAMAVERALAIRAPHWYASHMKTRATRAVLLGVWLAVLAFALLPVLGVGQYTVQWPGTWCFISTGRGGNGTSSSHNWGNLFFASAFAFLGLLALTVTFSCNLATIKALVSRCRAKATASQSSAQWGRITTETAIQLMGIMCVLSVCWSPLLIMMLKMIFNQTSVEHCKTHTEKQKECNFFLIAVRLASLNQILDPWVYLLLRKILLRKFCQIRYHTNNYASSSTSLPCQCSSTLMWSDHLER
As to the kind of experiment: FLIPR Ca2+ signaling antagonist assay, EP3 receptor stable cell line. The following applies: chimeric Gqi, vs standard agonist PGE2. As for the experimental part: as §1, §2, §3, §4, §5

For assay [6], the target named is T6, human prostanoid EP4 receptor (Homo sapiens, UniProt P35408).
T6 construct: expressed in transfected cells
T6 sequence (P35408 whole entry): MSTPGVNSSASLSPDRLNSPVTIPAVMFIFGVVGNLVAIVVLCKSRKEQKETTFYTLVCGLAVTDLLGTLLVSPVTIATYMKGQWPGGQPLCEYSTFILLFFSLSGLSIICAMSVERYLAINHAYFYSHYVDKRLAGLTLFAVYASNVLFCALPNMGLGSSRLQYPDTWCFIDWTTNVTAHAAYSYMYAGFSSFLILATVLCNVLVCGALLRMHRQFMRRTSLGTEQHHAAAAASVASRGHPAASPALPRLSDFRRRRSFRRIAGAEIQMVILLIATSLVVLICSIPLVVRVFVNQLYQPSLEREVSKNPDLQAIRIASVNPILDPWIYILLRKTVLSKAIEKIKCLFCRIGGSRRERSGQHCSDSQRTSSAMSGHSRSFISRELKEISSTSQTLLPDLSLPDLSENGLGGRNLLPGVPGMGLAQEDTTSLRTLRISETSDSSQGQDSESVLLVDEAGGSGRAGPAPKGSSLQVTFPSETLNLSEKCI
Nature of the assay: FLIPR Ca2+ signaling antagonist assay, EP4 receptor stable cell line. To be noted: chimeric Gqs, vs standard agonist PGE2. As for the experimental part: as §1, §2, §3, §4, §5

Assay [7] deals with T7, human prostanoid IP receptor (Homo sapiens, UniProt P43119).
T7 construct: expressed in transfected cells
T7 sequence (P43119 whole entry): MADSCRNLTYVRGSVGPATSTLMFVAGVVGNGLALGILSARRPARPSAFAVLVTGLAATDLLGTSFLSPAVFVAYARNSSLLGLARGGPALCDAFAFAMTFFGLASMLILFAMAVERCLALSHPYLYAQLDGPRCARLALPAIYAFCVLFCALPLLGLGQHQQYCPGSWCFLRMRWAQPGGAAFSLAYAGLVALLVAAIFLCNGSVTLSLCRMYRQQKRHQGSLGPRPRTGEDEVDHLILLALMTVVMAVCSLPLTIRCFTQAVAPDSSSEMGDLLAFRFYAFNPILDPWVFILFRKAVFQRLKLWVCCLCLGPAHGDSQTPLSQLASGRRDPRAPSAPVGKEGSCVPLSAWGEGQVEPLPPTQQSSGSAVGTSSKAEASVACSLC
Nature of the assay: FLIPR Ca2+ signaling antagonist assay, IP receptor stable cell line. The following applies: HEK-293 EBNA stable cells, vs standard agonist Cicaprost. As for the experimental part: as §1, §2, §3, §4, §5

In assay [8] the target is T8, human prostanoid TP receptor (Homo sapiens, UniProt P21731).
T8 construct: expressed in transfected cells
T8 sequence (P21731 1-343): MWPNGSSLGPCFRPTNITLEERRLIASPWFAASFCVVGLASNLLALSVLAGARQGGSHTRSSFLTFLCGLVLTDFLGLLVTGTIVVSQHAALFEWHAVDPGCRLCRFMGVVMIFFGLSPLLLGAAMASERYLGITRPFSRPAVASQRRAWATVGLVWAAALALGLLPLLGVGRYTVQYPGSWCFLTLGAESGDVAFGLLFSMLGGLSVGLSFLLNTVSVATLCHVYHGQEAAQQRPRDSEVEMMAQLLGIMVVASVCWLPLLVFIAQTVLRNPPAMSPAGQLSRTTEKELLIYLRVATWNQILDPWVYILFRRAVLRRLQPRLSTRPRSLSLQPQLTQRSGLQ
As to the kind of experiment: FLIPR Ca2+ signaling antagonist assay, TP receptor stable cell line. How it is done:
as §1, §2
as §3, with “These stable cell lines were validated using previously published antagonists at 10 μM against serial dilutions of standard agonists by FLIPR functional assays for Ca^2+ Signaling (as described below).” left out
as §5

Where [9] appears, read: read-out: EC50 (nM) on Prostanoid Receptor Functional Activity Measured by FLIPR.
The mark [10] stands for this setting: HEK-293 EBNA stable cells, read-out: EC50 (nM) on Prostanoid Receptor Functional Activity Measured by FLIPR, (FLIPR) Kb (nM): EP1.
[11] abbreviates: HEK-293 EBNA stable cells, read-out: EC50 (nM) on Prostanoid Receptor Functional Activity Measured by FLIPR, (FLIPR) Kb (nM): EP2.
The mark [12] stands for this setting: HEK-293 EBNA stable cells, read-out: EC50 (nM) on Prostanoid Receptor Functional Activity Measured by FLIPR, (FLIPR) Kb (nM): EP3.
Where [13] appears, read: HEK-293 EBNA stable cells, read-out: EC50 (nM) on Prostanoid Receptor Functional Activity Measured by FLIPR, (FLIPR) Kb (nM): EP4.
[14] abbreviates: HEK-293 EBNA stable cells, vs standard agonist U-46619, read-out: EC50 (nM) on Prostanoid Receptor Functional Activity Measured by FLIPR, (FLIPR) Kb (nM): TP.
The mark [15] stands for this setting: EC50 (nM) on Prostanoid Receptor Functional Activity Measured by FLIPR.

Molecules are shown by their SMILES. Where “and” joins values, the source holds several entries; their conditions need not be identical. Identical values can stand only once. Like-named read-outs stand apart in the source and are kept apart here.

T4 sequence (P43116 whole entry): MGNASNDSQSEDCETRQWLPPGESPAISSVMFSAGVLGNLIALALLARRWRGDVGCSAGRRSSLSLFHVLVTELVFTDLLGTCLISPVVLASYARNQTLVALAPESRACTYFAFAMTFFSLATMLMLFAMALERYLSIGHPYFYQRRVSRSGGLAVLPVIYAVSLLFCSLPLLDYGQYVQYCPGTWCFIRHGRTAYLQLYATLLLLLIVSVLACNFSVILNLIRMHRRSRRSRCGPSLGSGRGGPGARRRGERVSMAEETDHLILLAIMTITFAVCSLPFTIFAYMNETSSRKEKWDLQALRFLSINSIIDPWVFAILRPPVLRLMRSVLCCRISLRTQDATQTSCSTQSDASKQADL
T1 sequence (P43088 whole entry): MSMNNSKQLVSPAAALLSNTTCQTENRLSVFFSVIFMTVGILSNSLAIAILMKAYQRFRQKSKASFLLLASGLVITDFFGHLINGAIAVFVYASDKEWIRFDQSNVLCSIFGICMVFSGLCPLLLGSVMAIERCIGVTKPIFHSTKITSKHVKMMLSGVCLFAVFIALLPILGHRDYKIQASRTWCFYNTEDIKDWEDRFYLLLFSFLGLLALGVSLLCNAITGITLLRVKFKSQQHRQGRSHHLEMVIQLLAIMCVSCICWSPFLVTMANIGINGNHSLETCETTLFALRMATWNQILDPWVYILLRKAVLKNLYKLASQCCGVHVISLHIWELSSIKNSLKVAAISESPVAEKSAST

Take `O=C(CCc1cc2c(cc1CN1CCCC1c1nc(C(=O)NCCCCC3CCCCC3)co1)OCO2)NS(=O)(=O)C(F)(F)F` (centres unmarked) [Example 12d]: the Kb was determined as 360 nM in assay [1] (setting [9]); 3 nM in assay [2] (HEK-293 EBNA stable cells, chimeric Gqs, vs standard agonist BW 245C, read-out: EC50 (nM) on Prostanoid Receptor Functional Activity Measured by FLIPR, (FLIPR) Kb (nM): DP); 63 nM in assay [3] (setting [10]); 3900 nM in assay [4] (setting [11]); 150 nM in assay [5] (setting [12]); 7 nM in assay [6] (setting [13]). Besides, the Kb in assay [7] (setting [9]) came out at 1000 nM; in assay [8] (setting [14]) it was 0.3 nM.

As for `O=C(CCc1ccc(F)cc1CN1CCC[C@H]1c1nc(C(=O)NCCCCC2CCCCC2)co1)NS(=O)(=O)C(F)(F)F` [Example 12a], the Kb was 350 nM and 270 nM in assay [1] (setting [9]); 47 nM and 20 nM in assay [3] (setting [10]); 6400 nM and 830 nM in assay [4] (setting [11]); 82 nM and 47 nM in assay [5] (setting [12]); 38 nM and 10 nM in assay [6] (setting [13]); 550 nM and 860 nM in assay [7] (setting [9]). In assay [8] (setting [14]), the Kb was less than 1 nM.

As for `O=C(CCc1ccc(Cl)cc1CN1CCC[C@H]1c1nc(C(=O)NCCCCC2CCCCC2)co1)NS(=O)(=O)C(F)(F)F` [Example 12b, (S)—N-(4-cyclohexylbutyl)-2-(1-(5-chloro-2-(3-oxo-3-(trifluoromethylsulfonamido)propyl)benzyl)pyrrolidin-2-yl)oxazole-4-carboxamide], the Kb in assay [1] (setting [9]) was determined as 460 nM; in assay [3] (setting [10]), 70 nM; in assay [4] (setting [11]), 5500 nM; in assay [5] (setting [12]) it was 100 nM; in assay [6] (setting [13]), 37 nM; in assay [7] (setting [9]) it was 9500 nM.

Regarding `CCCCCCCCNC(=O)c1coc(C2CCCN2Cc2cc(F)ccc2CCC(=O)NS(=O)(=O)C(F)(F)F)n1` (centres unmarked) [Example 12e, 2-{1-[5-fluoro-2-(3-oxo-3-{[(trifluoromethyl)sulfonyl]amino}propyl)benzyl]pyrrolidin-2-yl}-N-octyl-1,3-oxazole-4-carboxamide], the Kb was 270 nM in assay [1] (setting [15]); 18 nM in assay [2]; 20 nM in assay [3] (EC50 (nM) on Prostanoid Receptor Functional Activity Measured by FLIPR, (FLIPR) Kb (nM): EP1, HEK-293 EBNA stable cells); 2500 nM in assay [4] (EC50 (nM) on Prostanoid Receptor Functional Activity Measured by FLIPR, (FLIPR) Kb (nM): EP2, HEK-293 EBNA stable cells); 110 nM in assay [5] (EC50 (nM) on Prostanoid Receptor Functional Activity Measured by FLIPR, (FLIPR) Kb (nM): EP3, HEK-293 EBNA stable cells); 19 nM in assay [6] (EC50 (nM) on Prostanoid Receptor Functional Activity Measured by FLIPR, (FLIPR) Kb (nM): EP4, HEK-293 EBNA stable cells). Also, the Kb in assay [7] (setting [15]) is 290 nM; in assay [8], greater than 1 nM.

The values are drawn from patent US20120077858A1, “COMPOUNDS ACT AT MULTIPLE PROSTAGLANDIN RECEPTORS GIVING A GENERAL ANTI-INFLAMMATORY RESPONSE” (ALLERGAN, INC., priority 2010, published 2012).
